Test system: influenza virus (WSN strain)
Assay type: cell-based

## DOCK11 #2: lentivirus-expressed shRNA against DOCK11 gene, SEQ ID NO: 2, used in Examples 3, 4, 6, 8, 12 (guide CCGGGTACTAGACACCATATCATTTCTCGAGAAATGATATGGTGTCTAGTACTTTTTG)
  localization of nucleoproteins of influenza virus in the nucleus of the host cell: suppressed
